Literature values as cited in patent US9623127B2, “Multimodal contrast and radiopharmaceutical agent for an imaging and a targeted therapy guided by imaging” (CENTRE NATIONAL DE LA RECHERCHE SCIENTIFIQUE, priority 2011, dated 2017).

Conditions: 0.6 T, 20° C.

longitudinal relaxivity r1: 5.4 mM⁻¹ s⁻¹
SMILES: O=C([O-])CN(CCN(CC(=O)[O-])CC(=O)O)CCN(CC(=O)[O-])CC(=O)O.[Gd+3] [Gd(III)DTPA]
